For assay [1], the system named is resistance (R) level. The assay can be described thus: Connectivity map drug screen: effect of each drug on resistance level. It is filed as cell-based. Conditions: for effect on resistance: connectivity map drug screen, at least 6 cell lines of different tissues; for Effect on resistance level: t-test, positive/negative sign = increasing/decreasing level following drug treatment. An excerpt: (§1) Using the drug screen of the connectivity map [Aravind Subramanian et al., Cell 171 (6): 1437-1452 (2017)], the effect of each drug on resistance and tolerance was next analyzed in at least 6 cell lines of different tissues. Identification of multiple drugs that display an effect on resistance/tolerance-related diseases allows (i) repurposing of drugs, and (ii) personalized prioritization of drugs. For instance, the screen tested three P glycoprotein inhibitors: zosuquidar, elacridar, and dofequidar. […] Thus, for specific disease in which P glycoprotein inhibitor is required, it is possible to prioritize drugs for each patient based on its baseline combination of resistance and tolerance state.

Assay [2] has as its system disease tolerance (T) level. The assay can be described thus: Connectivity map drug screen: effect of each drug on tolerance level. It is filed as cell-based. The following applies: for effect on tolerance: connectivity map drug screen, at least 6 cell lines of different tissues, all tissues under study; for Effect on tolerance level: t-test, positive/negative sign = increasing/decreasing level following drug treatment.
Source text: as §1

SMILES strings stand for the structures.

Take `O=C(C(c1ccccc1)c1ccccc1)N1CCN(CC(O)COc2cccc3ncccc23)CC1` (stereo not shown) [dofequidar]: in assay [1], the effect on resistance result is “increasing resistance”. The “Effect on resistance level” value in assay [1] (tissue: breast) is recorded as 0.89 signed −log p-values; in assay [1] (tissue: kidney), 7.33 signed −log p-values; in assay [1] (tissue: large intestine), 9.14 signed −log p-values; in assay [1] (tissue: pancreas), 5.84 signed −log p-values; in assay [1] (tissue: prostate), 3.47 signed −log p-values; in assay [1] (tissue: skin), 9.17 signed −log p-values. Moreover, the effect on tolerance result in assay [2] is reported as “increased tolerance”. Further, the “Effect on tolerance level” value in assay [2] (tissue: breast) is 6.29 signed −log p-values; in assay [2] (tissue: kidney) it was 2.40 signed −log p-values; in assay [2] (tissue: large intestine) it was 6.03 signed −log p-values; in assay [2] (tissue: pancreas) it was 2.60 signed −log p-values; in assay [2] (tissue: prostate), 1.54 signed −log p-values; in assay [2] (tissue: skin), 0.89 signed −log p-values.

Regarding `COc1cc2c(cc1OC)CN(CCc1ccc(NC(=O)c3cccc4c(=O)c5cccc(OC)c5[nH]c34)cc1)CC2` [elacridar], the effect on resistance result in assay [1] was “increasing resistance”. In addition, the “Effect on resistance level” value in assay [1] (tissue: breast) came to 7.26 signed −log p-values; in assay [1] (tissue: kidney) it was 6.87 signed −log p-values; in assay [1] (tissue: large intestine) it was 10.56 signed −log p-values; in assay [1] (tissue: pancreas), 2.33 signed −log p-values; in assay [1] (tissue: prostate) it was 4.37 signed −log p-values; in assay [1] (tissue: skin), 4.66 signed −log p-values. Further, the effect on tolerance entry in assay [2] was “increased tolerance”. The “Effect on tolerance level” value in assay [2] (tissue: breast) is 1.84 signed −log p-values; in assay [2] (tissue: kidney) it was 8.48 signed −log p-values; in assay [2] (tissue: large intestine) it was 13.47 signed −log p-values; in assay [2] (tissue: pancreas) it was −0.10 signed −log p-values; in assay [2] (tissue: prostate), −1.43 signed −log p-values; in assay [2] (tissue: skin) it was 2.77 signed −log p-values.

For `O[C@@H](COc1cccc2ncccc12)CN1CCN([C@@H]2c3ccccc3[C@@H]3[C@H](c4ccccc42)C3(F)F)CC1` [zosuquidar], the “Effect on resistance level” value in assay [1] (tissue: breast) is listed as 0.13 signed −log p-values; in assay [1] (tissue: kidney) it was −2.54 signed −log p-values; in assay [1] (tissue: large intestine), −7.65 signed −log p-values; in assay [1] (tissue: pancreas) it was −2.82 signed −log p-values; in assay [1] (tissue: prostate) it was −2.05 signed −log p-values; in assay [1] (tissue: skin) it was −6.00 signed −log p-values. Moreover, the “Effect on tolerance level” value in assay [2] (tissue: breast) is given as 11.19 signed −log p-values; in assay [2] (tissue: kidney), 5.15 signed −log p-values; in assay [2] (tissue: large intestine), 5.89 signed −log p-values; in assay [2] (tissue: pancreas), 5.81 signed −log p-values; in assay [2] (tissue: prostate), 5.97 signed −log p-values; in assay [2] (tissue: skin) it was 2.91 signed −log p-values.

The values above are taken from US20240353397A1, “MARKERS OF RESISTANCE AND DISEASE TOLERANCE AND USES THEREOF” (priority 2021, published 2024).
